In PubChem BioAssay (NCI):
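Here, GI50 denotes the concentration required for 50% inhibition of growth. TGI is the concentration that stops growth completely.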

Columns and labels:
Assay in all cases: NCI anticancer screen, dose series, 384-well format
LOX IMVI melanoma = tested on: LOX IMVI melanoma
HCC-2998 colon = tested on: HCC-2998 colon
786-0 renal = tested on: 786-0 renal
SK-MEL-5 melanoma = tested on: SK-MEL-5 melanoma
T-47D breast = tested on: T-47D breast
SN12C renal = tested on: SN12C renal
SR leukemia = tested on: SR leukemia
M14 melanoma = tested on: M14 melanoma
UO-31 renal = tested on: UO-31 renal
NCI-H226 lung = tested on: NCI-H226 lung
HCT-116 colon = tested on: HCT-116 colon
HOP-62 NSCLC = tested on: HOP-62 NSCLC
UACC-257 melanoma = tested on: UACC-257 melanoma
TK-10 renal = tested on: TK-10 renal
MOLT-4 leukemia = tested on: MOLT-4 leukemia
OVCAR-5 ovarian = tested on: OVCAR-5 ovarian
SF-539 CNS = tested on: SF-539 CNS
MALME-3M melanoma = tested on: MALME-3M melanoma
OVCAR-3 ovarian = tested on: OVCAR-3 ovarian
UACC-62 melanoma = tested on: UACC-62 melanoma
CCRF-CEM leukemia = tested on: CCRF-CEM leukemia
SNB-19 CNS = tested on: SNB-19 CNS
CAKI-1 renal = tested on: CAKI-1 renal
U251 glioblastoma = tested on: U251 glioblastoma
NCI-H460 NSCLC = tested on: NCI-H460 NSCLC
A498 renal = tested on: A498 renal
OVCAR-8 ovarian = tested on: OVCAR-8 ovarian
RXF 393 renal = tested on: RXF 393 renal
ACHN renal = tested on: ACHN renal
K-562 leukemia = tested on: K-562 leukemia
DU-145 prostate = tested on: DU-145 prostate
BT-549 breast = tested on: BT-549 breast
SF-295 CNS = tested on: SF-295 CNS
KM12 colon = tested on: KM12 colon
HT29 colon = tested on: HT29 colon
SK-MEL-28 melanoma = tested on: SK-MEL-28 melanoma
PC-3 prostate = tested on: PC-3 prostate
HCT-15 colon = tested on: HCT-15 colon
OVCAR-4 ovarian = tested on: OVCAR-4 ovarian
NCI/ADR-RES ovarian = tested on: NCI/ADR-RES ovarian
SW-620 colon = tested on: SW-620 colon
MDA-MB-231 breast = tested on: MDA-MB-231 breast
RPMI-8226 leukemia = tested on: RPMI-8226 leukemia
NCI-H322M lung = tested on: NCI-H322M lung
COLO 205 colon = tested on: COLO 205 colon
HL-60(TB) leukemia = tested on: HL-60(TB) leukemia
SK-OV-3 ovarian = tested on: SK-OV-3 ovarian
MDA-MB-435 melanoma = tested on: MDA-MB-435 melanoma
MDA-MB-468 breast = tested on: MDA-MB-468 breast
A549 NSCLC = tested on: A549 NSCLC
SK-MEL-2 melanoma = tested on: SK-MEL-2 melanoma
NCI-H522 lung = tested on: NCI-H522 lung
IGROV1 ovarian = tested on: IGROV1 ovarian
SF-268 CNS = tested on: SF-268 CNS
NCI-H23 lung = tested on: NCI-H23 lung
MCF7 breast = tested on: MCF7 breast
HOP-92 NSCLC = tested on: HOP-92 NSCLC

COc1nnc2ccc(N3CCC(c4ccc(OCCN5CCN(C)C(=O)[C@H]5C)cc4)CC3)nn12
GI50 (LOX IMVI melanoma): 27.2 nM | TGI (LOX IMVI melanoma): 61 nM | GI50 (HCC-2998 colon): 13.3 nM | TGI (HCC-2998 colon): 48.8 nM | GI50 ([…]-0 renal): 45.5 nM | TGI (786-0 renal): 13400 nM | GI50 (SK-MEL-5 melanoma): 17.8 nM | TGI (SK-MEL-5 melanoma): 98.6 nM | GI50 (T-47D breast): 29.7 nM | TGI (T-47D breast): 537 nM | GI50 (SN12C renal): 165 nM | TGI (SN12C renal): 1480 nM | GI50 (SR leukemia): < 10 nM | TGI (SR leukemia): 20.8 nM | GI50 (M14 melanoma): 18.3 nM | TGI (M14 melanoma): 1570 nM | GI50 (UO-31 renal): 56.9 nM | TGI (UO-31 renal): 1560 nM | GI50 (NCI-H226 lung): 38.9 nM | TGI (NCI-H226 lung): 416 nM | GI50 (HCT-116 colon): 37.7 nM | TGI (HCT-116 colon): 2530 nM | GI50 (HOP-62 NSCLC): 27.4 nM | TGI (HOP-62 NSCLC): 475 nM | GI50 (UACC-257 melanoma): 25 nM | TGI (UACC-257 melanoma): 573 nM | GI50 (TK-10 renal): 34.8 nM | TGI (TK-10 renal): 460 nM | GI50 (MOLT-4 leukemia): 14.3 nM | TGI (MOLT-4 leukemia): 37.7 nM | GI50 (OVCAR-5 ovarian): 60.5 nM | TGI (OVCAR-5 ovarian): 2970 nM | GI50 (SF-539 CNS): 53.9 nM | TGI (SF-539 CNS): 8620 nM | GI50 (MALME-3M melanoma): 73.8 nM | TGI (MALME-3M melanoma): 791 nM | GI50 (OVCAR-3 ovarian): 17.2 nM | TGI (OVCAR-3 ovarian): 135 nM | GI50 (UACC-62 melanoma): < 10 nM | TGI (UACC-62 melanoma): 96.4 nM | GI50 (CCRF-CEM leukemia): 26.8 nM | TGI (CCRF-CEM leukemia): 166 nM | GI50 (SNB-19 CNS): 311 nM | TGI (SNB-19 CNS): 77900 nM | GI50 (CAKI-1 renal): 16.9 nM | TGI (CAKI-1 renal): 382 nM | GI50 (U251 glioblastoma): 77.1 nM | TGI (U251 glioblastoma): 11900 nM | GI50 (NCI-H460 NSCLC): 58.7 nM | TGI (NCI-H460 NSCLC): 15400 nM | GI50 (A498 renal): 53.8 nM | TGI (A498 renal): 655 nM | GI50 (OVCAR-8 ovarian): 23.9 nM | TGI (OVCAR-8 ovarian): 218 nM | GI50 (RXF 393 renal): 22.8 nM | TGI (RXF 393 renal): 78.8 nM | GI50 (ACHN renal): 108 nM | TGI (ACHN renal): 3050 nM | GI50 (K-562 leukemia): 35 nM | TGI (K-562 leukemia): 3710 nM | GI50 (DU-145 prostate): 369 nM | TGI (DU-145 prostate): > 100000 nM | GI50 (BT-549 breast): 23.1 nM | TGI (BT-549 breast): 214 nM | GI50 (SF-295 CNS): 86.4 nM | TGI (SF-295 CNS): 4970 nM | GI50 (KM12 colon): 46 nM | TGI (KM12 colon): 12500 nM | GI50 (HT29 colon): 28.8 nM | TGI (HT29 colon): 2120 nM | GI50 (SK-MEL-28 melanoma): 30.6 nM | TGI (SK-MEL-28 melanoma): 1490 nM | GI50 (PC-3 prostate): 122 nM | TGI (PC-3 prostate): 90700 nM | GI50 (HCT-15 colon): 31.7 nM | TGI (HCT-15 colon): 194 nM | GI50 (OVCAR-4 ovarian): 10.2 nM | TGI (OVCAR-4 ovarian): 40.2 nM | GI50 (NCI/ADR-RES ovarian): 269 nM | TGI (NCI/ADR-RES ovarian): 2180 nM | GI50 (SW-620 colon): 114 nM | TGI (SW-620 colon): 1280 nM | GI50 (MDA-MB-231 breast): 46.2 nM | TGI (MDA-MB-231 breast): 2570 nM | GI50 (RPMI-8226 leukemia): 12.2 nM | TGI (RPMI-8226 leukemia): 33.8 nM | GI50 (NCI-H322M lung): 28.9 nM | TGI (NCI-H322M lung): 640 nM | GI50 (COLO 205 colon): 35.9 nM | TGI (COLO 205 colon): 248 nM | GI50 (HL-60(TB) leukemia): < 10 nM | TGI (HL-60(TB) leukemia): 19.1 nM | GI50 (SK-OV-3 ovarian): 17.3 nM | TGI (SK-OV-3 ovarian): 144 nM | GI50 (MDA-MB-435 melanoma): 75.9 nM | TGI (MDA-MB-435 melanoma): > 100000 nM | GI50 (MDA-MB-468 breast): < 10 nM | TGI (MDA-MB-468 breast): 51.2 nM | GI50 (A549 NSCLC): 42.5 nM | TGI (A549 NSCLC): 1640 nM | GI50 (SK-MEL-2 melanoma): < 10 nM | TGI (SK-MEL-2 melanoma): 41.3 nM | GI50 (NCI-H522 lung): < 10 nM | TGI (NCI-H522 lung): 46 nM | GI50 (IGROV1 ovarian): 29.3 nM | TGI (IGROV1 ovarian): 162 nM | GI50 (SF-268 CNS): 58.6 nM | TGI (SF-268 CNS): 14400 nM | GI50 (NCI-H23 lung): 62.7 nM | TGI (NCI-H23 lung): 629 nM | GI50 (MCF7 breast): 11.7 nM | TGI (MCF7 breast): 158 nM | GI50 (HOP-92 NSCLC): 12.7 nM | TGI (HOP-92 NSCLC): 74.5 nM
